{"source": "patent US11878966B2", "about": "“Substituted 4-benzyl and 4-benzoyl piperidine derivates” (89BIO LTD, priority 2015, dated 2024)", "data": [{"target": "T1, recombinant human baculovirus-expressed GST-tagged FASN (Homo sapiens, UniProt P49327)", "T1 construct": "GST; host or cells: baculovirus expression system (insect cells implied)", "T1 sequence (P49327 whole entry)": "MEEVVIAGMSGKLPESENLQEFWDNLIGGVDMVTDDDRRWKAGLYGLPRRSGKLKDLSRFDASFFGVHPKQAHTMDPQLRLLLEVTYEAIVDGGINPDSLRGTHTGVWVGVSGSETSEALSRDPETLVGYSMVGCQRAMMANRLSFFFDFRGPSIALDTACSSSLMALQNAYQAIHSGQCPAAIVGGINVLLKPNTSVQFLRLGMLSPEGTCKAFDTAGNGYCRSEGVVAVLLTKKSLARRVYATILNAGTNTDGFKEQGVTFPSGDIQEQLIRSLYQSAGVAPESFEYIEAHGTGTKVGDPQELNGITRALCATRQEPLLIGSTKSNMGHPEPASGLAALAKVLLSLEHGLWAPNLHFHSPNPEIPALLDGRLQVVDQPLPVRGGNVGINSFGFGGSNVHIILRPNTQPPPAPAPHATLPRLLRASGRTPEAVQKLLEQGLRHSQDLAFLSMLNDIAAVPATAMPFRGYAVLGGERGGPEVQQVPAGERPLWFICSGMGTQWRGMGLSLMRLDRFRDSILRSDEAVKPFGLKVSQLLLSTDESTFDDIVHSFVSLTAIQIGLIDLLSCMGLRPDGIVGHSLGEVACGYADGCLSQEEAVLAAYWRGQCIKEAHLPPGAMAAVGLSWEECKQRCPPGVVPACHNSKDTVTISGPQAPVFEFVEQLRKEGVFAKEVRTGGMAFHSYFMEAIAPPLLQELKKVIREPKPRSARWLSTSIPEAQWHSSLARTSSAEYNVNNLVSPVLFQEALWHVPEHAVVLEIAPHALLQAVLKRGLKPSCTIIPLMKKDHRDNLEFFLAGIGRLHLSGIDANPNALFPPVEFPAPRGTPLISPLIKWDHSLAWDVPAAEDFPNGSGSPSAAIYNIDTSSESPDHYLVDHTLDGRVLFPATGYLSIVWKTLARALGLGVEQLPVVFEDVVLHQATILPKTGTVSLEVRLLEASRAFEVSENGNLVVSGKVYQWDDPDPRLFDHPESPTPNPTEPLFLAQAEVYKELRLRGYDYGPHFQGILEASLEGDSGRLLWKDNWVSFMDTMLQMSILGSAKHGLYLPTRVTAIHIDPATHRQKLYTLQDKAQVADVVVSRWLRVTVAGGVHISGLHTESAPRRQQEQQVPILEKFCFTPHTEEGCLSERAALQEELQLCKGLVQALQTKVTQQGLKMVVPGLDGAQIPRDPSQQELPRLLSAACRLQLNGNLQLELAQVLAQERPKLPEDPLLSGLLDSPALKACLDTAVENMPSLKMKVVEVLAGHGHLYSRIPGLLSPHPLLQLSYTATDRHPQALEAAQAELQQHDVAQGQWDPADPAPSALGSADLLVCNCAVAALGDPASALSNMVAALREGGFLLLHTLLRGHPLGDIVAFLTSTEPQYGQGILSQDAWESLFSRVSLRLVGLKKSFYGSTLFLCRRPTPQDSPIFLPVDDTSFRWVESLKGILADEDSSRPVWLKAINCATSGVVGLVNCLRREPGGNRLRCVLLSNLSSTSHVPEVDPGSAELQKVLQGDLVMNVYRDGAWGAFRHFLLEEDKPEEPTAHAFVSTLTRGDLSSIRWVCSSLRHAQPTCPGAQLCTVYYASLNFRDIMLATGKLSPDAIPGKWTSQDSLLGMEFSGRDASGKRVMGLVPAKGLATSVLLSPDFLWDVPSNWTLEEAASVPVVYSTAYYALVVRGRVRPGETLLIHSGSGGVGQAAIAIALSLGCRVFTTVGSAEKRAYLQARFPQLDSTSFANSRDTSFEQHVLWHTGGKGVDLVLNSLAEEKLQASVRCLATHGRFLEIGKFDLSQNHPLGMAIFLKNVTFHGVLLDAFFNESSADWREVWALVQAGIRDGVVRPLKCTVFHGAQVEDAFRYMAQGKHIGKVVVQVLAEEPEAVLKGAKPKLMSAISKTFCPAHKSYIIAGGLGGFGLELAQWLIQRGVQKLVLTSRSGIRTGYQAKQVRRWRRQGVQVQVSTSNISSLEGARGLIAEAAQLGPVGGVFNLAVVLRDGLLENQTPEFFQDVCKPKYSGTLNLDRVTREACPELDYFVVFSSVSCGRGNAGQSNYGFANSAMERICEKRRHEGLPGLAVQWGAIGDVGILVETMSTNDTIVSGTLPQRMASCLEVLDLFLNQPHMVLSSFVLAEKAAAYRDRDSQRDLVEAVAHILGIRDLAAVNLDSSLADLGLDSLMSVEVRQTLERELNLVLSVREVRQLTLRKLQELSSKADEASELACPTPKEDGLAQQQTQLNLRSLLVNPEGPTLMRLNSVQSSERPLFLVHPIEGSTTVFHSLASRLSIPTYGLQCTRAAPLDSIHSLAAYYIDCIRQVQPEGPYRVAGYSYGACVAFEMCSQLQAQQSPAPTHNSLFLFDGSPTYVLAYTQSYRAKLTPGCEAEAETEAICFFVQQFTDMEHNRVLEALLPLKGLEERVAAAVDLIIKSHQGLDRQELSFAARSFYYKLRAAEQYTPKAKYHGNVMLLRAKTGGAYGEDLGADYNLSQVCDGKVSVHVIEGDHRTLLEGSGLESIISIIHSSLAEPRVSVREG", "test": "FASN enzyme activity assay: fluorescence-based detection of CoA with CPM", "assay_type": "biochemical", "conditions": "5 nM FASN, 150 μM NADPH, 10 μM acetyl-CoA, 25 μM malonyl-CoA, 90 minutes incubation", "from_the_text": "FASN Enzyme activity may be determined by detecting coenzyme A (CoA), a product of FASN-catalyzed synthesis of palmitate from acetyl-CoA and malonyl-CoA with NADPH as a cofactor. The assay is fluorescence-based and measures the interaction of free CoA with 7-diethylamino-3-(4′-malemimidylphenyl)-4-methylcoumarin (CPM; Life Technologies, CA) as described in Chung et al (2008). The coumarin derivative CPM contains a thiol-reactive maleimide that becomes fluorescent upon interaction with the sulfhydryl group of CoA.\nFor the example compounds described herein, the reaction was performed in 384-well low volume non-binding platews (Corning, NY) using recombinant human baculovirus-expressed GST-tagged FASN. The 20-μL assay mixture contained 50 mM HEPES (pH 7.5), 5 nM FASN, 150 μM NADPH (Sigma, St. Louis, MO), 10 μM acetyl-CoA (Sigma), 25 μM malonyl-CoA (Sigma) and test compound [diluted in dimethyl sulfoxide (DMSO); 0.5% DMSO final in assay after 100 nL addition]. See, Chung et al.; “A fluorescence-based thiol quantification assay for ultra-high-throughput screening for inhibitors of coenzyme A production,” Assay Drug Dev Tech 2008; 6:361-374.\nThe reaction was initiated by adding malonyl-CoA, followed by incubation for 90 minutes at […]. A stock solution of the CPM reagent was prepared in DMSO al 66 μM and stored at […]. To detect CoA produced in the FASN reaction, the CPM stock was diluted to 50 μM in 70% ethanol and added at 4 μL/well to the assay place. The reaction mixture was then incubated for 30 minutes. Fluorescence was measured using the EnVision™ 2102 multi-label plate reader (PerkinElmer, Waltham, MA) utilizing a general dual mirror, a 390 nm excitation filter and a 530 nm emission filter. Data analysis was performed using ActivityBase (IDBS, Guilford, UK). IC50 values were calculated by plotting the percent inhibition versus log 10 of the concentration of the compound, and fitting to the nonlinear regression sigmoidal dose-response (variable slope) equation in XLFit (IDBS).", "units": {"IC50": "nM"}, "values": [{"smiles": "CC(C)C(=O)N1CCC(C2(c3ccc(-c4ccc(CN(C)C)cc4)cc3)OCCO2)CC1", "note": "[Example 135, 1-{4-[2-(4′-Dimethylaminomethyl-biphenyl-4-yl)-1,3-dioxolan-2-yl]piperidin-1-yl}-2-methyl-propan-1-one]", "IC50": "1000 to 10000"}, {"smiles": "CCC(=O)N1CCC(C(=O)c2ccc(-c3ccc4cccnc4c3)cc2F)CC1", "note": "[Example 142, 1-[4-(2-Fluoro-4-quinolin-7-yl-benzoyl)-piperidin-1-yl]-propan-1-one]", "IC50": "100 to 999"}, {"smiles": "Cc1c(-c2ccc(CC3CCN(C(=O)C4(O)CC4)CC3)cc2)ccc2nccn12", "note": "[Example 96, (1-Hydroxycyclopropyl)-{4-[4-(5-methylimidazo[1,2-a]pyridin-6-yl)-benzyl]-piperidin-1-yl}-methanone]", "IC50": "1 to 99"}, {"smiles": "CCC(=O)N1CCC(C(c2ccc(-c3cnc4ccccc4c3)cc2)C2CC2)CC1", "note": "(centres unmarked) [Example 48, 1-{4-[Cyclopropyl-(4-quinolin-3-yl-phenyl)-methyl]-piperidin-1-yl}-propan-1-one]", "IC50": "100 to 999"}, {"smiles": "CCC(=O)N1CCC(C(=O)c2ccc(-c3ccc4cnccc4c3)cc2)C1", "note": "(centres unmarked) [Example 133, 1-[3-(4-Isoquinolin-6-yl-benzoyl)-pyrrolidin-1-yl]-propan-1-one]", "IC50": "1000 to 10000"}, {"smiles": "Cc1nccc2cc(-c3ccc(C4(C5CCN(C(=O)[C@H]6CCCO6)CC5)CC4)cc3)ccc12", "note": "[Example 78, (4-{1-[4-(1-Methylisoquinolin-6-yl)-phenyl]-cyclopropyl}-piperidin-1-yl)-(R)-tetrahydrofuran-2-yl-methanone]", "IC50": "1000 to 10000"}, {"smiles": "CONC(=O)N1CCC(Cc2ccc(-c3ccc4cccnc4c3C)cc2)CC1", "note": "[Example 231, N-methoxy-4-[[4-(8-methyl-7-quinolyl)phenyl]methyl]piperidine-1-carboxamide]", "IC50": "1 to 99"}, {"smiles": "O=C(N1CCC(O)(Cc2ccc(-c3cc4ccccc4cn3)cc2)CC1)N1CCCO1", "note": "[Example 145, (4-hydroxy-4-(4-(isoquinolin-3-yl)benzyl)piperidin-1-yl)(isoxazolidin-2-yl)methanone]", "IC50": "1000 to 10000"}, {"smiles": "CCC(=O)N1CCC(C(C)(OC)c2ccc(-c3ccc4cccnc4c3)cc2)CC1", "note": "(centres unmarked) [Example 212, 1-{4-[1-Methoxy-1-(4-quinolin-7-yl-phenyl)-ethyl]-piperidin-1-yl}-propan-1-one]", "IC50": "1 to 99"}, {"smiles": "CC(C)C(=O)N1CCC(Cc2ccc(-c3cnc4ccccc4c3)cc2)CC1", "note": "[Example 2, 2-Methyl-1-[4-(4-quinolin-3-yl-benzyl)-piperidin-1-yl]-propan-1-one]", "IC50": "1 to 99"}, {"smiles": "CCC(=O)N1CCC(C(C)(O)c2ccc(-c3ccc4cnccc4c3)cc2)C1", "note": "(centres unmarked) [Example 134, 1-{3-[1-Hydroxy-1-(4-isoquinolin-6-yl-phenyl)-ethyl]-pyrrolidin-1-yl}-propan-1-one]", "IC50": "1000 to 10000"}, {"smiles": "CC(=O)N1CCC(C2(c3ccc(-c4ccc5ncccc5c4)cc3)OCCO2)CC1", "note": "[Example 106, 1-{4-[2-(4-Quinolin-6-yl-phenyl)-1,3-dioxolan-2-yl]-piperidin-1-yl}-ethanone]", "IC50": "1000 to 10000"}, {"smiles": "O=C(C1CC1)N1CCC(F)(Cc2ccc(-c3ccc4occc4c3)cc2)CC1", "note": "[Example 179, (4-(4-(benzofuran-5-yl)benzyl)-4-fluoropiperidin-1-yl)(cyclopropyl)methanone]", "IC50": "100 to 999"}, {"smiles": "CCC(=O)N1CCC(C(=O)c2ccc(-c3cnc4ccccc4c3)cc2F)CC1", "note": "[Example 143, 1-[4-(2-Fluoro-4-quinolin-3-yl-benzoyl)piperidin-1-yl]propan-1-one]", "IC50": "1 to 99"}, {"smiles": "CCC(=O)N1CCC(F)(C(=O)c2ccc(-c3ccc4cccnc4c3C)cc2)CC1", "note": "[Example 222, 1-{4-Fluoro-4-[4-(8-methylquinolin-7-yl)-benzoyl]-piperidin-1-yl}-propan-1-one]", "IC50": "1000 to 10000"}, {"smiles": "CCC(=O)N1CCC(Cc2ccc(-c3cnc4ccccc4c3Cl)cc2)CC1", "note": "[Example 19, 1-{4-[4-(4-Chloroquinolin-3-yl)-benzyl]-piperidin-1-yl}-propan-1-one]", "IC50": "1 to 99"}, {"smiles": "O=C(C1CC1)N1CCC(C(F)(F)c2ccc(-c3cnc4ccccc4c3)cc2)CC1", "note": "[Example 17, Cyclopropyl-{4-[difluoro-(4-quinolin-3-yl-phenyl)-methyl]-piperidin-1-yl}-methanone]", "IC50": "100 to 999"}]}]}
